Source: patent publication US20090093618A1, “STREPTAVIDIN-BIOTIN-LINK ANTIBODY-HAPTEN SYSTEM” (The Regents OF THE UNIVERSITY OF CALIFORNA, priority 2006, published 2009)

Legend:
2D12.5 = test: Relative binding curves of 2D12.5 for Y-DOTA isomers, Y-DTPA and sidechain variants (FIG. 16, 17); set-up: species or system mouse; conditions: for relative binding affinity for 2D12.5 (in words): coordinated metal Y^3+
Description: FIG. 16 is a graphical display showing the relative binding curves of 2D12.5 for Y-DOTA isomers and Y-DTPA. 2D12.5 binds both the (R)- and (S)-isomer of 2-(4-nitrobenzyl)-DOTA when the coordinated metal is Y^3+ (the same behavior is expected for the other rare earths). The (S)-isomer confers Λ-helicity, while the (R)-isomer confers Δ-helicity to the acetate arms. […] Y-DOTA (no-sidearm) exists in solution as a racemic mixture of the coordination isomers.
FIG. 17 is a graphical display showing relative binding curves of Y-DOTA molecules with different sidechain locations. […] Evaluation of the crystal structure seems to indicate that shorter substitutions at the position may bind with higher affinity. Substitutions at other locations may yield reasonably high affinities as well. The (5-Amino-2-methoxy-phenyl)-carboxymethyl)-DOTA analyzed in this experiment was racemic, so it is not clear which isomer binds with higher affinity. The low pKa of the carboxymethyl proton makes it difficult to prepare a chirally pure molecule.

antibody 2D12.5 = test: Competitive immunoassay (ELISA) of metal-DOTA complexes relative to Y-DOTA; assay type: binding, mouse; conditions: 37° C.; for relative binding affinity compared with Y-DOTA (in words): 15 ions tested
Description: FIG. 13 is graphical display showing the relative binding of metal-DOTA complexes to antibody 2D12.5. A representative set of competitive binding curves obtained from ELISA experiments described in Example 3 below. Error bars (representing the standard error of the mean) are shown, but are generally smaller than the data points.
To determine the metal selectivity of the antibody 2D12.5, a competitive immunoassay was used to measure the binding constants of multiple metal-DOTA complexes relative to Y^3+-DOTA.
We examined the monoclonal antibody 2D12.5, initially developed to bind specifically to Y-DOTA for targeted radiotherapy (see, e.g., Goodwin et al., Cancer Res. 54: 5937-5946 (1994)), in order to determine the scope of its activity. To assess the metal selectivity of antibody 2D12.5, a competitive immunoassay to measure the binding constants of various metal-DOTA complexes relative to the original Y^3+ complex was developed (FIG. 12). Briefly, 2D12.5 was incubated at 37° C. in the presence of immobilized Y-DOTA and a soluble metal-DOTA competitor. The metal-DOTA concentration was varied from μM to pM in order to determine the relative binding affinity of 2D12.5 for each metal chelate in comparison to Y-DOTA. Binding was measured by standard methods known to those of skill in the art. The DOTA analog used to evaluate binding was [S]-2-(p-nitrobenzyl)-DOTA, which is similar to the original antigen.

N85D_G54C 2D12.5 mutant = test: Permanent binding of metal-AABD and metal-NBD complexes to 2D12.5 Fab mutant N85D_G54C (Western blot)
Description: Metallation of Chelates with stable metal cations. Metals tested in this experiment included Y, La, Lu, Sr and Sc. Stock chelate concentrations were measured using a Co-57 metal binding assay (Meares et al., Anal. Biochem. 142:68-78, 1984). Stock metal solutions (approximately 0.2 M) were prepared by dissolving the appropriate gravimetrically measured rare earth chloride salt in 0.05 M HCl. As an example, YCl3 (2.5 equivalents) was added to 25 μL of NBD ([…]) dissolved in 0.1 M tetramethylammonium acetate, and the pH was adjusted to 5 by the addition of triethylamine. The metallation was allowed to proceed overnight at 50° C. Samples were promptly frozen at −70° C., and metallation efficiency was assessed using a competitive metal-binding assay with Co-57.^3 Excess metal was scavenged with DTPA, which has very low affinity for the antibody (<<1%).
Metal-AABD and metal-NBD complexes were incubated with 2D12.5 Fab mutant N85D_G54C and samples denatured, reduced and separated by SDS-PAGE, as described for Y-90 in the previous examples. […]

## O=C(O)CN1CCN(CC(=O)O)CCN(CC(=O)O)[C@H](Cc2ccc([N+](=O)[O-])cc2)CN(CC(=O)O)CC1 [(R)-isomer of 2-(4-nitrobenzyl)-DOTA, 2-(4-nitrobenzyl)-DOTA]
2D12.5
  relative binding affinity for 2D12.5 (in words): decreases less than an order of magnitude

## O=C(O)CN(CCN(CC(=O)O)CC(=O)O)CCN(CC(=O)O)CC(=O)O [DTPA]
2D12.5; DTPA used to scavenge excess metal
  affinity for the antibody: < 1%

## O=C([O-])CN1CCN(CC(=O)[O-])CCN(CC(=O)[O-])CCN(CC(=O)[O-])CC1.[Eu+3] [Eu^3+]
Antibody 2D12.5
  relative binding affinity compared with Y-DOTA (in words): strongest binders

## O=C([O-])CN1CCN(CC(=O)[O-])CCN(CC(=O)[O-])CCN(CC(=O)[O-])CC1.[Gd+3] [Gd-DOTA]
Antibody 2D12.5
  relative binding affinity compared with Y-DOTA (in words): bind more tightly than the original Y^3+ complex
Antibody 2D12.5; listed as Gd^3+
  relative binding affinity compared with Y-DOTA (in words): strongest binders

## O=C(O)CN1CCN(CC(=O)O)CCN(CC(=O)O)C(Cc2ccc([N+](=O)[O-])cc2)CN(CC(=O)O)CC1 (stereo not shown) [NBD, [S]-2-(p-nitrobenzyl)-DOTA]
N85D_G54C 2D12.5 mutant; Western blot, hybridoma-derived 2D12.5 as 1° stain
  permanent bond formation with N85D_G54C 2D12.5 mutant: negative

## O=C([O-])CN1CCN(CC(=O)[O-])CCN(CC(=O)[O-])CCN(CC(=O)[O-])CC1.[Tb+3] [Tb-DOTA]
Antibody 2D12.5
  relative binding affinity compared with Y-DOTA (in words): strongest binders

## O=C([O-])CN1CCN(CC(=O)[O-])CCN(CC(=O)[O-])CCN(CC(=O)[O-])CC1.[Y+3] [Y-DOTA]
Antibody 2D12.5; DOTA analog used was [S]-2-(p-nitrobenzyl)-DOTA
  Kd: 10 nM
2D12.5
  relative binding affinity for 2D12.5 (in words): between that observed for the (S)- and (R)-isomers

## O=C(O)CN1CCN(CC(=O)O)CCN(CC(=O)O)[C@@H](Cc2ccc([N+](=O)[O-])cc2)CN(CC(=O)O)CC1 [Y-NBD, (S)-2-(4-nitrobenzyl)-DOTA]
N85D_G54C 2D12.5 mutant; Western blots
  binding strength of NBD complexes among the rare earths: one of the strongest binders
2D12.5
  relative binding affinity for 2D12.5 (in words): clearly stronger
2D12.5; listed as (S)-isomer of 2-(4-nitrobenzyl)-DOTA
  relative binding affinity for 2D12.5 (in words): preferred isomer for binding

## (5-Amino-2-methoxyphenyl)-carboxymethyl)-DOTA
2D12.5
  relative binding affinity for 2D12.5 (in words): still sufficiently strong
